Measured values: ChEMBL document CHEMBL5370605, “Discovery of Novel Fedratinib-Based HDAC/JAK/BRD4 Triple Inhibitors with Remarkable Antitumor Activity against Triple Negative Breast Cancer” (J Med Chem, 2023)

Columns and labels:
[1] = Half life in ICR (CD-1) mouse at 10 mg/kg, iv measured for 24 hrs by LC-MS/MS analysis; type: ADME, organism-based; conditions: in vivo
[2] = Cmax in ICR (CD-1) mouse at 50 mg/kg, ip measured for 24 hrs by LC-MS/MS analysis; type: ADME, organism-based; parameters: time 24 hrs, dose 50 mg/kg, route ip; conditions: in vivo
[3] = molecular target: T1, Tyrosine-protein kinase JAK3 (Homo sapiens, UniProt P52333); experiment: Inhibition of JAK3 (unknown origin) incubated for 40 mins in presence of ATP by Kinase-glo luminescent assay
T1 sequence (P52333 whole entry): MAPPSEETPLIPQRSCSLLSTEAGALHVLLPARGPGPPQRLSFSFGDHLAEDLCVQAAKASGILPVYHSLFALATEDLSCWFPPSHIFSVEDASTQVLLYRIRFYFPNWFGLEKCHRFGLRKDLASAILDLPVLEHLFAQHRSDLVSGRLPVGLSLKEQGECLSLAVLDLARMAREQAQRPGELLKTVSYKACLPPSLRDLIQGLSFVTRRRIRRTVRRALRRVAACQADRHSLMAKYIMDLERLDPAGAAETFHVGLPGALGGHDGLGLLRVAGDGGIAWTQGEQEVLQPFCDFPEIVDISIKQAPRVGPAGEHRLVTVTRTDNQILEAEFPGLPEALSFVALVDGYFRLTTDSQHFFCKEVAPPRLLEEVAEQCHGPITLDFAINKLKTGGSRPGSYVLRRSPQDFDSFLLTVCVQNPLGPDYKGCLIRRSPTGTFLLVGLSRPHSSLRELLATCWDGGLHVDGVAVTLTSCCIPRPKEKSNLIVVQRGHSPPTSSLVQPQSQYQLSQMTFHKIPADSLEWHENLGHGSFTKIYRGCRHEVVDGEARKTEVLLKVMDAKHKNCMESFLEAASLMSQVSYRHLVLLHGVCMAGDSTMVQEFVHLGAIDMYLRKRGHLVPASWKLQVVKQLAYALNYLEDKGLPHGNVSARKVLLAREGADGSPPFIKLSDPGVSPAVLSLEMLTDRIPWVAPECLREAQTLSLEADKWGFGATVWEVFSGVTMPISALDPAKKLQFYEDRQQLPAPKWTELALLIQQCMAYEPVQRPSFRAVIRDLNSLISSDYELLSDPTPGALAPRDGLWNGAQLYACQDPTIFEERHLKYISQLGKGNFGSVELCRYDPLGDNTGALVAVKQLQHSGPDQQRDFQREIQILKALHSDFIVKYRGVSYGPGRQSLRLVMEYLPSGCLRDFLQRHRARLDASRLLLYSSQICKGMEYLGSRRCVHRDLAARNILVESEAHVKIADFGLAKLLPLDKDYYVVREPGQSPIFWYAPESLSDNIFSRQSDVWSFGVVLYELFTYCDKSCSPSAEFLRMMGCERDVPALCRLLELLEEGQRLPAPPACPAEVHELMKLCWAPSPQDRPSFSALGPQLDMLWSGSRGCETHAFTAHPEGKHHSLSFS

[4] = MRT (0 to t) in ICR (CD-1) mouse at 50 mg/kg, ip measured for 24 hrs by LC-MS/MS analysis; type: ADME, organism-based; conditions: in vivo
[5] = molecular target: T2, Receptor-type tyrosine-protein kinase FLT3 (Homo sapiens, UniProt P36888); experiment: Inhibition of FLT3 (unknown origin) incubated for 40 mins in presence of ATP by Kinase-glo luminescent assay
T2 sequence (P36888 whole entry): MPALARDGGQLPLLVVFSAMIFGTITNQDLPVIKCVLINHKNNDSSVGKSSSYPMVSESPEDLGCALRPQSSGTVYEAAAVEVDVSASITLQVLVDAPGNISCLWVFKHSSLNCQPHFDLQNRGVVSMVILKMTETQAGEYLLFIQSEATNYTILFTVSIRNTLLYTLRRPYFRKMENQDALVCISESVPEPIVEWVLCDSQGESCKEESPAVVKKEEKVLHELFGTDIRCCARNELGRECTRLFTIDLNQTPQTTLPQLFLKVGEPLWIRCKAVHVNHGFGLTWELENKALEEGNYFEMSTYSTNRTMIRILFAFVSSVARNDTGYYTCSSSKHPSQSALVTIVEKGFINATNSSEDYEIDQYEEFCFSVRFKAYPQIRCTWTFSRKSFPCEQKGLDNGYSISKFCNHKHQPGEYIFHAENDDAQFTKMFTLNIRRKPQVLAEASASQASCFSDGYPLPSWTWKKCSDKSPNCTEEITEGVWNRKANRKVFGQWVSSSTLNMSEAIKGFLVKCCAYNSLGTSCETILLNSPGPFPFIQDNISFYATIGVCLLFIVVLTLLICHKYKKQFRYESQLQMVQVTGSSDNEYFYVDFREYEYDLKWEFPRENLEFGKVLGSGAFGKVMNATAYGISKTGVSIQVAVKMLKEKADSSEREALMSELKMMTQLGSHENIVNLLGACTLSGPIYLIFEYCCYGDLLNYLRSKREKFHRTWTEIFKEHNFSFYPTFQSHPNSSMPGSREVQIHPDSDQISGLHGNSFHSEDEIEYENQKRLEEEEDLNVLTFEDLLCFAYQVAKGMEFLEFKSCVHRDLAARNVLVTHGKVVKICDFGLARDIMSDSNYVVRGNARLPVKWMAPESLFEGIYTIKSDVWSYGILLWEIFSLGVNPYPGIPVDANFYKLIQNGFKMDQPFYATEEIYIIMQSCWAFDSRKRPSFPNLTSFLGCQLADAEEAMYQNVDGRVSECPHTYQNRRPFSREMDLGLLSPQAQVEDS

[6] = Bioavailability in ICR (CD-1) mouse at 50 mg/kg, ip measured for 24 hrs by LC-MS/MS analysis; type: ADME, organism-based; conditions: in vivo, ip, 50 mg/kg, 24 h
GES1 = experiment: Cytotoxicity against human GES1 cells at 1 uM incubated for 48 hrs by MTT assay; type: toxicity, cell-based; conditions: ges1, 48 h
[7] = Volume of distribution at steady state in ICR (CD-1) mouse at 10 mg/kg, iv measured for 24 hrs by LC-MS/MS analysis; type: ADME, organism-based; conditions: in vivo
[8] = Metabolic stability in mouse liver microsomes assessed as intrinsic clearance in presence of NADPH by LC-MS/MS analysis; type: ADME, Microsome; conditions: read-out: CLH
[9] = AUC (0 to t) in ICR (CD-1) mouse at 10 mg/kg, iv measured for 24 hrs by LC-MS/MS analysis; type: ADME, organism-based; parameters: dose 10 mg/kg, time 24 hrs, route iv; conditions: in vivo

SMILES: Cc1cnc(Nc2ccc(OCCN3CCCC3)cc2)nc1Nc1ccc(C(=O)NO)cc1
- t1/2 [1]: 1.49 h
- Cmax [2]: 9560 ng/mL
- IC50 [3]: 91 nM
- MRT last at 24 h [4]: 2.18 h
- IC50 [5]: 10.9 nM
- F [6]: 151%
- Activity (GES1): Non-Toxic
- Vdss [7]: 8.84 L/kg
- CLint scaled [8]: 146 mL/min/kg
- AUCt [9]: 1951 ng·h/mL
